This assay relates to A549 NSCLC cells. Description: Cellular cytotoxicity assay (Alamar Blue), A549. The assay is classed as cell-based. The note with it: Homo sapiens, 72 h, upper end given as ≧100, read-out: IC50 (μM), cytotoxicity towards A549 NSCLC cells. Here is the method:
The anti-proliferative activity of the histone deacetylase inhibitory compounds as described herein, is evaluated using the following cell lines: HeLa and HeLa-KB (cervical carcinoma), H460 (non small cell lung cancer), A549 (non-small cell lung cancer), MCF7 (breast carcinoma), MCF10A (normal, non tumorigenic breast epithelial), MDA-MB468 (breast carcinoma), MDA-MB435 (breast carcinoma), MDA-MB231 (breast carcinoma), SKBR-3 (breast carcinoma), SKOV-3 (ovarial carcinoma), A-2780 (ovarial carcinoma), RKO (colon carcinoma), HCT-15 (colon carcinoma), HCT-116 (colon carcinoma), PC3 (prostate carcinoma), BPH1 (benign prostate hyperplasia), AsPC1 (pancreatic carcinoma), Ca127 (tongue carcinoma), A-431 (vulva carcinoma), Hec1A (endometrial carcinoma), Saos-2 (osteosarcoma), U87MG (glioblastoma), WM266-4 (melanoma), K562 (chronic myeloid leukemia), EOL1 (acute hypereosinophilic myeloid leukemia), CCRF-CEM and CCRF-CEM VCR1000 (acute lymphoblastic leukemia sensitive and resistant towards Vincristine). For quantification of cellular proliferation/living cells the Alamar Blue (Resazurin) cell viability assay is applied (O'Brien et al. Eur J Biochem 267, 5421-5426, 2000). In this assay Resazurin is reduced to the fluorescent resorufine by cellular dehydrogenase activity, correlating with viable, proliferating cells. The examples are dissolved as 20 mM solutions in dimethylsulfoxide (DMSO) and subsequently diluted in semi-logarithmic steps. Cell lines are seeded at respective density into 96 well flat bottom plates in a volume of 200 μl per well. 24 h after seeding 1 μl each of the compound dilutions are added into each well of the 96 well plate. Each compound dilution is tested as quadruplicates. Wells containing untreated control cells are filled with 200 μl DMEM medium containing 0.5% v:v DMSO. The cells are then incubated with the compounds for 72 h at 37° C. in a humidified atmosphere containing 5% carbon dioxide. To determine the viability of the cells, 20 μl of a Resazurin solution (Sigma; 90 mg/l) are added. After 4 h incubation at 37° C. the fluorescence is measured at an extinction of λ=544 nm and an emission of λ=590 nm. For the calculation of the cell viability the emission value from untreated cells is set as 100% viability and the emission rates of treated cells are set in relation to the values of untreated cells. Viabilities are expressed as % values. The corresponding IC50 values of the compounds for cytotoxic activity are determined from the concentration-effect curves by means of non-linear regression.
Background: Alamar Blue is a resazurin reagent that responds to reducing activity.

A value given as a limit tells only on which side of the number the result lay.

What is called IC50 is the concentration at which inhibition is half-maximal. Turning to `CCCCNC(=O)C(=O)N1CCc2nc(C(=O)Nc3cc(C(C)C)ccc3N)sc2C1` [Example 84, N-(2-amino-5-isopropylphenyl)-5-[(butylamino)(oxo)acetyl]-4,5,6,7-tetrahydro[1,3]thiazolo[5,4-c]pyridine-2-carboxamide], the IC50 was no less than 0.2 µM.

Take `Nc1ccccc1NC(=O)c1nc2c(s1)CN(C(=O)C(=O)NCc1ccccc1)CC2` [Example 85, N-(2-aminophenyl)-5-[(benzylamino)(oxo)acetyl]-4,5,6,7-tetrahydro[1,3]thiazolo[5,4-c]pyridine-2-carboxamide]: the concentration for half-maximal inhibition (IC50) is no less than 0.2 µM.

Take `Nc1ccccc1NC(=O)c1nc2c(s1)CN(C(=O)c1ccc(-c3ccccc3)cc1)CC2` [Example 88, N-(2-aminophenyl)-5-(biphenyl-4-ylcarbonyl)-4,5,6,7-tetrahydro[1,3]thiazolo[5,4-c]pyridine-2-carboxamide]: the IC50 was no less than 0.2 µM.

Turning to `Cc1ccc(C(=O)N2CCc3nc(C(=O)Nc4ccccc4N)sc3C2)cc1` [Example 89, N-(2-aminophenyl)-5-(4-methylbenzoyl)-4,5,6,7-tetrahydro[1,3]thiazolo[5,4-c]pyridine-2-carboxamide], the half-inhibitory concentration (IC50) is no less than 0.2 µM.

As to `COC(=O)c1ccc(C(=O)N2CCc3nc(C(=O)Nc4ccccc4N)sc3C2)cc1` [Example 90, Methyl 4-({2-[(2-aminophenyl)carbamoyl]-6,7-dihydro[1,3]thiazolo[5,4-c]pyridin-5(4H)-yl}carbonyl)benzoate], the IC50 was no less than 0.2 µM.

Turning to `CN(C)c1ccc(C(=O)N2CCc3nc(C(=O)Nc4ccccc4N)sc3C2)cc1` [Example 91, N-(2-aminophenyl)-5-[4-(dimethylamino)benzoyl]-4,5,6,7-tetrahydro[1,3]thiazolo[5,4-c]pyridine-2-carboxamide], the 50% inhibitory concentration (IC50) is no less than 0.2 µM.

`COc1ccc(C(=O)N2CCc3nc(C(=O)Nc4ccccc4N)sc3C2)cc1` [Example 93, N-(2-aminophenyl)-5-(4-methoxybenzoyl)-4,5,6,7-tetrahydro[1,3]thiazolo[5,4-c]pyridine-2-carboxamide]: the IC50 is no less than 0.2 µM.

Turning to `Nc1ccccc1NC(=O)c1nc2c(s1)CN(C(=O)c1cnc3ccccc3c1)CC2` [Example 94, N-(2-aminophenyl)-5-(quinolin-3-ylcarbonyl)-4,5,6,7-tetrahydro[1,3]thiazolo[5,4-c]pyridine-2-carboxamide], the IC50 is no less than 0.2 µM.

As for `Nc1ccccc1NC(=O)c1nc2c(s1)CN(C(=O)c1ccc3ccccc3c1)CC2` [Example 95, N-(2-aminophenyl)-5-(2-naphthoyl)-4,5,6,7-tetrahydro[1,3]thiazolo[5,4-c]-pyridine-2-carboxamide], the IC50 was no less than 0.2 µM.

For the compound `CN(C)c1cccc(C(=O)N2CCc3nc(C(=O)Nc4ccccc4N)sc3C2)c1` [Example 97, N-(2-aminophenyl)-5-[3-(dimethylamino)benzoyl]-4,5,6,7-tetrahydro[1,3]thiazolo[5,4-c]pyridine-2-carboxamide], the IC50 was no less than 0.2 µM.

On to `Nc1ccccc1NC(=O)c1nc2c(s1)CN(C(=S)Nc1ccccc1)CC2` [Example 98, N-(2-aminophenyl)-5-(anilinocarbonothioyl)-4,5,6,7-tetrahydro[1,3]thiazolo[5,4-c]pyridine-2-carboxamide], for which the IC50 was no less than 0.2 µM.

`CN(C)c1ccc(NC(=S)N2CCc3nc(C(=O)Nc4ccccc4N)sc3C2)cc1` [Example 99, N-(2-aminophenyl)-5-({[4-(dimethylamino)phenyl]amino}carbonothioyl)-4,5,6,7-tetrahydro[1,3]thiazolo[5,4-c]pyridine-2-carboxamide]: the IC50 is no less than 0.2 µM.

As to `Nc1ccccc1NC(=O)c1nc2c(s1)CN(C(=S)NC1CCNCC1)CC2` [Example 100, N-(2-aminophenyl)-5-[(piperidin-4-ylamino)carbonothioyl]-4,5,6,7-tetrahydro[1,3]thiazolo[5,4-c]pyridine-2-carboxamide], the half-inhibitory concentration (IC50) was no less than 0.2 µM.

Regarding `Nc1ccccc1NC(=O)c1nc2c(s1)CN(C(=S)NC1CCC(c3cccnc3)CC1)CC2` (stereo not drawn) [Example 101, N-(2-aminophenyl)-5-{[(4-pyridin-3-ylcyclohexyl)amino]carbonothioyl}-4,5,6,7-tetrahydro[1,3]thiazolo[5,4-c]pyridine-2-carboxamide], the IC50 is no less than 0.2 µM.

In the case of `COc1ccc(N)c(NC(=O)c2nc3c(s2)CN(C(=S)Nc2ccccc2)CC3)c1` [Example 102, N-(2-amino-5-methoxyphenyl)-5-(anilinocarbonothioyl)-4,5,6,7-tetrahydro[1,3]thiazolo[5,4-c]pyridine-2-carboxamide], the half-inhibitory concentration (IC50) was no less than 0.2 µM.

With `Nc1ccccc1NC(=O)c1nc2c(s1)CN(C(=S)Nc1cccnc1)CC2` [Example 103, N-(2-aminophenyl)-5-[(pyridin-3-ylamino)carbonothioyl]-4,5,6,7-tetrahydro[1,3]thiazolo[5,4-c]pyridine-2-carboxamide], the IC50 is no less than 0.2 µM.

With `Nc1ccccc1NC(=O)c1nc2c(s1)CN(C(=S)Nc1cccc3cnccc13)CC2` [Example 104, N-(2-aminophenyl)-5-[(isoquinolin-5-ylamino)carbonothioyl]-4,5,6,7-tetrahydro[1,3]thiazolo[5,4-c]pyridine-2-carboxamide], the concentration for half-maximal inhibition (IC50) is no less than 0.2 µM.

Consider `CCCCNC(=S)N1CCc2nc(C(=O)Nc3ccccc3N)sc2C1` [Example 105], for which the IC50 was no less than 0.2 µM.

With `COc1ccc(NC(=S)N2CCc3nc(C(=O)Nc4cc(OC)ccc4N)sc3C2)cc1` [Example 106, N-(2-amino-5-methoxyphenyl)-5-{[(4-methoxyphenyl)amino]carbonothioyl}-4,5,6,7-tetrahydro[1,3]thiazolo[5,4-c]pyridine-2-carboxamide], the half-maximal inhibitory concentration (IC50) is no less than 0.2 µM.

Consider `COc1ccc(N)c(NC(=O)c2nc3c(s2)CN(C(=S)Nc2cccnc2)CC3)c1` [Example 107, N-(2-amino-5-methoxyphenyl)-5-[(pyridin-3-ylamino)carbonothioyl]-4,5,6,7-tetrahydro[1,3]thiazolo[5,4-c]pyridine-2-carboxamide], for which the concentration for half-maximal inhibition (IC50) was no less than 0.2 µM.

As to `CC(C)c1ccc(N)c(NC(=O)c2nc3c(s2)CN(C(=S)Nc2cccnc2)CC3)c1` [Example 108, N-(2-amino-5-isopropylphenyl)-5-[(pyridin-3-ylamino)carbonothioyl]-4,5,6,7-tetrahydro[1,3]thiazolo[5,4-c]pyridine-2-carboxamide], the 50% inhibitory concentration (IC50) is no less than 0.2 µM.

Regarding `CC(C)c1ccc(N)c(NC(=O)c2nc3c(s2)CN(C(=S)Nc2ccccc2)CC3)c1` [Example 109, N-(2-amino-5-isopropylphenyl)-5-(anilinocarbonothioyl)-4,5,6,7-tetrahydro[1,3]thiazolo[5,4-c]pyridine-2-carboxamide], the IC50 was no less than 0.2 µM.

In the case of `COc1ccc(NC(=S)N2CCc3nc(C(=O)Nc4cc(C(C)C)ccc4N)sc3C2)cc1` [Example 110, N-(2-amino-5-isopropylphenyl)-5-{[(4-methoxyphenyl)amino]carbonothioyl}-4,5,6,7-tetrahydro[1,3]thiazolo[5,4-c]pyridine-2-carboxamide], the half-inhibitory concentration (IC50) was no less than 0.2 µM.

On to `COc1ccc(NC(=N)N2CCc3nc(C(=O)Nc4ccccc4N)sc3C2)cc1` [Example 111, N-(2-aminophenyl)-5-{imino[(4-methoxyphenyl)amino]methyl}-4,5,6,7-tetrahydro[1,3]thiazolo[5,4-c]pyridine-2-carboxamide], for which the IC50 is no less than 0.2 µM.
